In US20200323219A1, “BIOLOGICAL FUNGICIDE COMPOSED BY PLANT EXTRACTS” (JH Biotech Inc., priority 2019, published 2020):

Key:
[1] = test system: Magnaporthe grisea (teleomorph: Pyricularia oryzae); conditions: 1000 ppm; cited from earlier work
Alternaria brassicicola [2] = conditions: cited from earlier work
Alternaria brassicicola [3] = assay: Conidial germination of Alternaria brassicicola on slides in a moist chamber; format: cell-based; conditions: 24 hours; for Conidial germination rate (%) in different diluted condition 1000X: diluted 1000 times; for Conidial germination rate (%) in different diluted condition 1500X: diluted 1500 times; for Conidial germination rate (%) in different diluted condition 2000X: diluted 2000 times
Description: The tables differ only in how the gallnut and myrobalan are presented. For Table 1-1, gallnut and myrobalan are presented in vol % as described earlier for the Row 6 procedure while Table 1-2 presents the active ingredients of gallnut and myrobalan as concentration (grams/ml). One drop of 20 μl of pathogen conidia suspension (100 conidia per microliter) was mixed with one drop of 20 μl for each of the eight combinations of gallnut and myrobalan formulations, and at dilutions of 750 times, 1000 times, and 1500 times. Each combination was placed on test slides that were maintained at 100% relative humidity at room temperature. The germination rate of 100 conidia on each slide was calculated visually using a microscope following an incubation period of 24 hours. Tables 2-1 and 2-2 show the same plant extract formulations as in Table 1 but including the addition of a surfactant; specifically, either yucca plant extract (Yucca […]) or sodium lauryl sulfate (SLS). Each was added for testing conidial germinations of Alternaria brassicicola. Dilutions were at 1000 times, 1500 times and 2000 times water. 10 vol % of yucca extract or 5 wt. % of SLS was added to the formulations and then used to test the inhibitory effects on conidial germination on the same fungal pathogen Alternaria brassicicola.

[4] = test system: Xanthomonas euvesicatoria; conditions: cited from earlier work
Acidovorax citrulli = conditions: cited from earlier work
Ralstonia solanacearum = conditions: cited from earlier work
[5] = Table 2-2, with surfactant (gms/ml per 100 ml)

O=C(O)c1cc(O)c(O)c(O)c1 [gallic acid, 3,4,5-trihydroxybenzoic acid]
conidial germination [1]: stop | intrusive behavior of the germinated conidia [1]: stop | inhibition of conidial germination (Alternaria brassicicola [2]): effectively inhibit

CCCCCCCCCCCCOS(=O)(=O)[O-].[Na+] [sodium lauryl sulfate]
Conidial germination rate (%) in different diluted condition 1000X (Alternaria brassicicola [3]; Table 2-1, with surfactant): 55% | Conidial germination rate (%) in different diluted condition 1500X (Alternaria brassicicola [3]; Table 2-1, with surfactant): 90% | Conidial germination rate (%) in different diluted condition 2000X (Alternaria brassicicola [3]; Table 2-1, with surfactant): 94% | Conidial germination rate (%) in different diluted condition 1000X (Alternaria brassicicola [3]; [5]): 55% | Conidial germination rate (%) in different diluted condition 1500X (Alternaria brassicicola [3]; [5]): 90% | Conidial germination rate (%) in different diluted condition 2000X (Alternaria brassicicola [3]; [5]): 94%

COC(=O)c1cc(O)c(O)c(O)c1 [methyl gallate]
kill or inhibit the pathogen [4]: kill or inhibit | conidial germination [1]: stop | intrusive behavior of the germinated conidia [1]: stop | kill or inhibit the pathogen (Acidovorax citrulli): kill or inhibit | kill or inhibit the pathogen (Ralstonia solanacearum): kill or inhibit
